PMC7721803, “Development of a penem antibiotic against Mycobacteroides abscessus” (Communications Biology, 2020)
Read-outs that look alike come from different tables or passages of the source.

What was measured:
M. abscessus ATCC 19977 = assay type: cell-based, Mycobacteroides abscessus
[1] = Stability in mouse plasma; assay type: in vitro ADME; settings: 5 μM, 37 °C, over 4 h

C[C@@H](O)C1C(=O)N2C(C(=O)O)=C(SC3CN(C4=NCCS4)C3)SC12 (stereo in doubt) [T405]
Reduction in the frequency of resistance on addition of avibactam (M. abscessus ATCC 19977; T405 2 µg/mL with vs without avibactam 256 µg/mL): ~3 log
Resistance frequency (M. abscessus ATCC 19977; T405 at MIC (2 µg/mL) combined with avibactam at its MIC of 256 µg/mL): 5.8 × 10^−9
Resistance frequency (M. abscessus ATCC 19977; drug alone at its individual MIC (T405 2 µg/mL, imipenem 8 µg/mL)): 2.0 × 10^−6
Frequency of resistance higher than that for imipenem (M. abscessus ATCC 19977; each at its MIC): approximately 1 log
stability in mouse plasma [1]: no measurable degradation
